A short description of the data set: Acute oral toxicity test in mice. As to conditions: mouse, in vivo, suspension in 1% methylcellulose solution, male mice (ICR, 5-week-old), doses 0.5 g to 5.0 g/kg. As to the method: The acut oral toxicity data for cephalosporin derivatives (I) and acid addition salt of the present invention in mice are shown below.
Animals: Male mice (ICR, 5-week-old), n=3
Method of administration: The cephalosporin derivatives as prepared in the above synthesis examples were administered in the form of suspension in 1% methylcellulose solution to mice orally at doses of 0.5 g to 5.0 g/kg.

Bounds are passed on as bounds.

What is called LD50 is the dose at which mortality reaches 50%.

In the case of `CCOC(=O)OC(C)OC(=O)C1=CCS[C@@H]2[C@H](NC(=O)/C(=N\OC)c3csc(N)n3)C(=O)N12` (single isomer, unassigned) [Compound 1, l-(ethoxycarbonyloxy)ethyl 7-[2-(2-aminothiazol-4-yl)-2-methoxyiminoacetamido]-3-cephem-4-carboxylate (syn isomer)], the LD50 is > 5000 mg/kg.

These data come from patent EP0061162A2, “Cephalosporin derivatives, pharmaceutical compositions containing the same and production thereof” (KYOTO YAKUHIN KOGYO KABUSHIKI KAISHA, priority 1981, dated 1982).
